The subject of assay [1] is IL-17A secreted from antiCD3/CD28 stimulated Peripheral Blood Mononuclear cells (PBMC). In words: Peripheral Blood Mononucleocyte Cell Assay (PBMC Assay-IL-17). The class given is cell-based. The conditions noted are these: inhibition of IL-17A release, CD3/CD28 bead stimulated human PBMC, 48 hours; read-out: mean pIC50 (converted). From the text: Peripheral Blood Mononucleocyte Cell Assay (PBMC Assay-IL-17)
RORs (Retinoic Acid Related Orphan Receptors) are members of the class 1 nuclear receptor family. RORs regulate gene transcription by binding to specific DNA response element (RORE) as a monomer and have critical roles of in development, immunity, circadian rhythm, and cellular metabolism (recently reviewed by A Jetten, Nuclear Receptor Signaling, 2009, 7, 1-32) One member of this nuclear receptor family, RORγt, has been identified as a regulator of differentiation and development of IL-17-expressing human and mouse CD4+ T cells, so called Th17 cells which play a role in both host defence and inflammatory disorders. RORγt is also required for transcription of the genes encoding IL-17A and IL-17F in iNKT, NKT (Immunol 2009, 2(5), 383-392, J. Immunol, 2008, 180, 51(67), 5171-5171), γδTcells (J. Resp and Crit. Care Med 2010, 182(4), 464-476), CD8^+ Tcell (J Leukocyte Biol, 2007, 82(2), 354-360) and finally CD4-CD8-TCRαβ^+ T cells (J. Immunol. 2008, 181 8761-8766). Additional immune cells such as eosinophils, neutrophils and macrophages can also be source of IL17A in some allergic inflammation related to asthma (J Allergy Clin Immunol 2001, 108, 430-438; J. Immunol, 2008, 181, 6117-6124; Immunity, 2004, 21, 467-476), however, the link with RORγt has not yet been confirmed in the literature.
This assay is designed to measure levels of IL-17A secreted from antiCD3/CD28 stimulated frozen Peripheral Blood Mononuclear cells (PBMC) isolated from human blood with the aim of identifying inhibitors of IL-17A release.
• 1. Ensure no external endotoxin is present in media and reagents used in the assay. • 2. The compounds for screening are dispensed into a master plate at 10 mM top concentration which are serially diluted 1:3 across 11 points in DMSO, then 500 nl is transferred into a 384-well flat-bottomed Greiner plate to which 50 ul of cell suspension is added: for the single shot screening the highest concentration of compound is 10^−5M; for 11 point full curve dose response studies the highest concentration is […]. • Controls: • As a low control, DMSO (as supplied, for example, by VWR) (final concentration 1%) in column 6 (16 points). • As a high control, 5-(4-fluorophenyl)-2-ureidothiophene-3-carboxamide (obtainable from, for example, Sigma) at a final concentration of 10^−4 M in DMSO should be used in column 18 (16 points). • If the compounds dispensed earlier than the day of the assay, they should be kept at −20° C.
Protocol Step 2: Day 1: Thawing and Handing of PBMC • 1. Thaw PBMC in the vial using water bath (37° C.). […] Transfer the contents of the vial into 50 mL Falcon tube. • 3. Add 10 mL of Assay Media drop by drop to decrease the concentration of DMSO (as supplied, for example, by VWR) in the freezing media gradually. • 4. Spin down the cells in a centrifuge (1000 rpm-5 mins). • 5. Decant the supernatant. • 6. Re-suspend the cells in 10 mL of Assay Media. • 7. Transfer of 0.1 mL of suspension into Cedex counting tube. • 8. Add 0.9 mL of media to achieve volume of the suspension for counting up to 1 mL. Count the cells on Cedex using 1:10 dilution factor settings. • 9. Make the cell suspension at the concentration 8×10^5 cells/mL. to give a final number of 40,000 cells/well. Protocol Step 3: Day 1: Stimulation of PBMC with CD3/CD28 beads • 1. Add well mixed CD3/CD28 Dynabeads (as supplied, for example, by Dynal) to achieve ratio bead:cell=2:1 (i.e a dilution of 1 in 20). Mix thoroughly. • 2. Dispense the suspension into the 384 Assay Plates using Multidrop (50 ul per well). • If the volume of cell suspension is large, mix the suspension after dispensing into every other plate. • 3. Cover the plates with the lids and place them to the humidified incubator (37° C., 5% CO2) for 48 hours. Protocol Step 4: Day 2: MSD plates preparation • 1. […]

In assay [2] the target is T1, Human RORγ Ligand Binding Domain (RORγ-LBD) (Homo sapiens, UniProt P51449).
T1 construct: His6 plus thrombin site) (N); made in house; host or cells: E. coli BL21(DE3), modified pET21a
T1 sequence (P51449 263-518): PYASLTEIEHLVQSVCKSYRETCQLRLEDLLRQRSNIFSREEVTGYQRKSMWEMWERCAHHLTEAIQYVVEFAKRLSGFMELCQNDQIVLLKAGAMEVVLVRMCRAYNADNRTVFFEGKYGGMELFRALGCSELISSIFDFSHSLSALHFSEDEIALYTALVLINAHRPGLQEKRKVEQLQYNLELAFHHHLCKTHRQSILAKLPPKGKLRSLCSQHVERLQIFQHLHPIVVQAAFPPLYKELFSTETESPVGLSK
In words: Dual Fluorescence Energy Transfer (FRET) assay: RORγ-LBD / SRC1(2) co-activator peptide interaction. The class given is biochemical. The conditions noted are these: RORγ-LBD/SRC1(2) peptide interaction, read-out: mean pIC50 (converted). The source says: Dual Fluorescence Energy Transfer (FRET) Assay
This assay is based on the knowledge that nuclear receptors interact with cofactors (transcription factors) in a ligand dependent manner. RORγ is a typical nuclear receptor in that it has an AF2 domain in the ligand binding domain (LBD) which interacts with co-activators. The sites of interaction have been mapped to the LXXLL (SEQ ID NO:1) motifs in the co-activator SRC1(2) sequences. Short peptide sequences containing the LXXLL (SEQ ID NO:1) motif mimic the behavior of full-length co-activator.
This assay measures ligand-mediated interaction of the co-activator peptide with the purified bacterial-expressed RORγ ligand binding domain (RORγ-LBD) to indirectly assess ligand binding. RORγ has a basal level of interaction with the co-activator SRC1(2) in the absence of ligand, Thus, it is possible to find ligands that inhibit or enhance the RORγ/SRC1(2) interaction.
Human RORγ Ligand Binding Domain (RORγ-LBD) was expressed in E. coli strain BL21(DE3) as an amino-terminal polyhistidine tagged fusion protein. DNA encoding this recombinant protein was sub-cloned into a modified pET21a expression vector (Novagen). A modified polyhistidine tag (MKKHHHHHHLVPRGS) (SEQ ID NO:2)was fused in frame to residues 263-518 of the human RORγ sequence.
Approximately 50 g E. coli cell pellet was resuspended in 300 mL of lysis buffer (30 mM imidazole pH 7.0 and 150 mM NaCl). Cells were lysed by sonication and cell debris was removed by centrifugation for 30 minutes at 20,000 g at 4° C. The cleared supernatant was filtered through a 0.45 uM cellulose acetate membrane filter. The clarified lysate was loaded onto a column (XK-26) packed with ProBond Nickel Chelating resin (InVitrogen), pre-equilibrated with 30 mM imidazole pH 7.0 and 150 mM NaCl. After washing to baseline absorbance with the equilibration buffer, the column was developed with a gradient from 30 to 500 mM imidazole pH 7.0. Column fractions containing the RORγ-LBD protein were pooled and concentrated to a volume of 5 mLs. The concentrated protein was loaded onto a Superdex 200 column pre-equilibrated with 20 mM Tris-Cl pH 7.2 and 200 mM NaCl. The fractions containing the desired RORγ-LBD protein were pooled together.
Purified RORγ-LBD was buffer exchanged by exhaustive dialysis [3 changes of at least 20 volumes (>8000×)] against PBS [100 mM NaPhosphate, pH 8 and 150 mM NaCl]. The concentration of RORγ-LBD was approximately 30 uM in PBS. Five-fold molar excess of NHS-LC-Biotin (Pierce) was added in a minimal volume of PBS. This solution was incubated with occasional gentle mixing for 60 minutes at ambient room temperature. The modified RORγ-LBD was dialyzed against 2 buffer changes—TBS pH 8.0 containing 5 mM DTT, 2 mM EDTA and 2% sucrose—each at least 20 times of the volume. The modified protein was distributed into aliquots, frozen on dry ice and stored at −80° C. The biotinylated RORγ-LBD was subjected to mass spectrometric analysis to reveal the extent of modification by the biotinylation reagent. In general, approximately 95% of the protein had at least a single site of biotinylation and the overall extent of biotinylation followed a normal distribution of multiple sites ranged from one to five.
A biotinylated peptide corresponding to amino acid 676 to 700 ([…]) (SEQ ID NO:3)of the co-activator steroid receptor coactivator SRC1(2) was generated using similar method.
Biotinylated SRC1(2) solution was prepared by adding an appropriate amount of biotinylated SRC1(2) from the 100 uM stock solution to a buffer containing 10 mM of freshly added DTT from solid to give a final concentration of 40 nM. An appropriate amount of Europium labeled Streptavidin was then added to the biotinylated SRC1(2) solution in a tube to give a final concentration of 10 nM. The tube was inverted gently and incubated for 15 minutes at room temperature. […]

For the compound `CCCCc1ccc(N(CC(C)C)S(=O)(=O)c2ccc(OCc3c(C)noc3C)cc2)c(C)c1` [Product P23], in assay [1], the IC50 was at most 1 µM.

With `Cc1ccc(N(CC(C)C)S(=O)(=O)c2ccc(OCc3c(C)noc3C)cc2)c(C)c1` [Product P24], the IC50 is at most 0.0158 µM in assay [2] and at most 1 µM in assay [1].

On to `Cc1noc(C)c1COc1ccc(S(=O)(=O)N(CC(C)C)c2ccc(C(C)C)cc2)cc1` [Product P28], for which the IC50 is at most 0.0158 µM in assay [2] and at most 1 µM in assay [1].

As for `Cc1noc(C)c1COc1ccc(S(=O)(=O)N(CC(C)C)c2ccc(Cl)cc2)cc1` [Product P30], the IC50 in assay [2] was at most 0.0158 µM; in assay [1], at most 1 µM.

As to `CCCc1ccc(N(CC(C)C)S(=O)(=O)c2ccc(OCc3c(C)noc3C)cc2)cc1` [Product P31], the IC50 in assay [2] was at most 0.0158 µM; in assay [1] it was at most 1 µM.

As for `Cc1ccc(C(F)(F)F)cc1N(CC(C)C)S(=O)(=O)c1ccc(OCc2c(C)noc2C)cc1` [Product P33], the IC50 in assay [2] was at most 0.0158 µM; in assay [1], at most 1 µM.

Turning to `Cc1ccc(C)c(N(CC(C)C)S(=O)(=O)c2ccc(OCc3c(C)noc3C)cc2)c1` [Product P37], the IC50 in assay [1] is at most 1 µM.

In the case of `Cc1ccc(N(CC(C)C)S(=O)(=O)c2ccc(OCc3ccncc3)cc2)c(C)c1` [Product P98], the IC50 in assay [2] was at most 0.0158 µM.

As to `Cc1ccc(F)cc1N(CC(C)C)S(=O)(=O)c1ccc(OCc2ccncc2)cc1` [Product P104], in assay [2], the IC50 was at most 0.0158 µM.

With `Cc1noc(C)c1COc1ccc(S(=O)(=O)N(CC(C)C)c2ccc(Cl)c(Cl)c2)cc1` [Product P114], the IC50 in assay [2] is at most 0.0158 µM.

In the case of `Cc1cc(C)cc(N(CC(C)C)S(=O)(=O)c2ccc(OCc3c(C)noc3C)cc2)c1` [Product P118], in assay [1], the IC50 is at most 1 µM.

On to `Cc1ccc(N(CC(C)C)S(=O)(=O)c2ccc(OCc3ccncc3)cc2)c(C)c1` [Product P123], for which the IC50 in assay [1] was at most 1 µM.

As for `Cc1ccc(N(CC(C)C)S(=O)(=O)c2ccc(COCc3ccncc3)cc2)c(C)c1` [Product P128], the IC50 in assay [1] was at most 1 µM.

For the compound `Cc1ccc(N(CC(C)C)S(=O)(=O)c2ccc(OCc3ncn(C)n3)cc2)c(C)c1` [Product P132], the IC50 in assay [1] is at most 1 µM.

As to `Cc1ccccc1N(CC(C)C)S(=O)(=O)c1ccc(OCc2c(C)noc2C)cc1` [Product P137], in assay [1], the IC50 was at most 1 µM.

With `Cc1ccc(N(CC(C)C)S(=O)(=O)c2ccc(CCc3ccncc3)cc2)c(C)c1` [Product P140], the values for the IC50 in assay [2] and in assay [1] were at most 0.0158 µM and at most 1 µM, respectively.

As for `Cc1ccc(N(CC(C)C)S(=O)(=O)c2ccc(OCCc3ccncc3)cc2)c(C)c1` [Product P141], the IC50 in assay [2] was at most 0.0158 µM.

As for `Cc1ccc(N(CC(C)C)S(=O)(=O)c2ccc(OCCc3c(C)noc3C)cc2)c(C)c1` [Product P142], the IC50 in assay [2] was at most 0.0158 µM.

In the case of `Cc1ccc(N(CC(C)C)S(=O)(=O)c2ccc(OCc3ccncn3)cc2)c(C)c1` [Product P143], the IC50 in assay [1] is at most 1 µM.

`Cc1cc(Br)ccc1N(CC(C)C)S(=O)(=O)c1ccc(OCc2c(C)noc2C)cc1` [Product P144]: in assay [1], the IC50 was at most 1 µM.

On to `Cc1ccc(N(CC(C)C)S(=O)(=O)c2ccc(OCc3ncnn3C)cc2)c(C)c1` [Product P147], for which, in assay [1], the IC50 is at most 1 µM.

In the case of `Cc1ccc(N(CC(C)C)S(=O)(=O)c2ccc(OCC(O)c3ccncc3)cc2)c(C)c1` (stereo not drawn) [Product P150, N-(2,4-dimethylphenyl)-4-(2-hydroxy-2-(pyridin-4-yl)ethoxy)-N-isobutylbenzenesulfonamide], the IC50 in assay [2] is at most 0.0158 µM.

`Cc1cc(C(C)(C)O)ccc1N(CC(C)C)S(=O)(=O)c1ccc(OCc2c(C)noc2C)cc1` [Product P155, 4-((3,5-dimethylisoxazol-4-yl)methoxy)-N-(4-(2-hydroxypropan-2-yl)-2-methylphenyl)-N-isobutylbenzenesulfonamide]: the IC50 in assay [1] was at most 1 µM.

For the compound `Cc1ccc(N(CC(C)C)S(=O)(=O)c2ccc(C(=O)O)cc2)c(C)c1` [Product P179, 4-(N-(2,4-dimethylphenyl)-N-isobutylsulfamoyl)benzoic acid], in assay [1], the IC50 was over 100 µM.

The values are drawn from US9150508B2, “Sulfonamide compounds and their use in the modulation retinoid-related orphan receptor” (Glaxo Group Limited, priority 2011, dated 2015).
